The text below walks through data of BindingDB's records for doi:10.1016/j.bmcl.2012.09.045 (East China University of Science and Technology, 2012).

One may read the pEC50 as the negative decadic logarithm of the EC50, by convention in mol/L. Low values mean a high EC50, high ones a low EC50.

The test has as its target T1, Bile acid receptor (Homo sapiens, UniProt Q96RI1).
T1 sequence (Q96RI1 whole entry): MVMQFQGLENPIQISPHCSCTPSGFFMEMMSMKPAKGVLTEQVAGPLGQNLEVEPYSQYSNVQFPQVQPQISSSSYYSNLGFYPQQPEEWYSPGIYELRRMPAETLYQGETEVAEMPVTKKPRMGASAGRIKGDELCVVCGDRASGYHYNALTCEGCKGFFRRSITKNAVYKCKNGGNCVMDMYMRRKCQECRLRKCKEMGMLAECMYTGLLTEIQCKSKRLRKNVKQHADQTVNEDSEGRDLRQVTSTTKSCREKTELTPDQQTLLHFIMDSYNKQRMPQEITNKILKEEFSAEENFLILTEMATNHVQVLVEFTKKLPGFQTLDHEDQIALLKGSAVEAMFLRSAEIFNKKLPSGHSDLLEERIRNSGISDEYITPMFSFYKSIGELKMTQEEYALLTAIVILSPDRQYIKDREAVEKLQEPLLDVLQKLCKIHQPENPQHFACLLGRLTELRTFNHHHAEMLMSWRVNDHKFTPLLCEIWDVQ
Description: Agonist activity at FXR.

The structures appear in SMILES notation. pEC50: −log10 of the molar value.

For the compound `COC(=O)/C=C/c1cccc(N(Cc2ccc(-c3ccc(C(C)(C)C)cc3)cc2)C(=O)C(C)C)c1`, the pEC50 is 6.46.
